Source: patent US7767671B2, “3-Quinolinecarbonitrile protein kinase inhibitors” (Wyeth, priority 2004, dated 2010)

| melting point | Compound |
| --- | --- |
| 255 to 265 °C (dec.) | N#Cc1cnc2cc(N3CCC(N4CCCC4)CC3)c([N+](=O)[O-])cc2c1Cl [Example 25, 4-chloro-6-nitro-7-(4-pyrrolidin-1-ylpiperidin-1-yl)quinoline-3-carbonitrile] |
| 232 to 235 °C | N#Cc1c[nH]c2cc(N3CCC(N4CCCC4)CC3)c([N+](=O)[O-])cc2c1=O [Example 24, 6-Nitro-4-oxo-7-(4-pyrrolidin-1-ylpiperidin-1-yl)-1,4-dihydroquinoline-3-carbonitrile] |

The remaining lines, values behind:

| Compound | melting point |
| --- | --- |
| Cn1ccnc1Sc1ccc(Nc2c(C#N)cnc3cc(N4CCC(N5CCCC5)CC4)c(N)cc23)cc1Cl [Example 27, 6-Amino-4-[3-chloro-4-(1-methyl-1H-imidazole-2-ylsulfanyl)phenylamino]-7-(4-pyrrolidin-1-yl-piperidin-1-yl)quinoline-3-carbonitrile] | 265 to 267 °C |
| Cn1ccnc1Sc1ccc(Nc2c(C#N)cnc3cc(N4CCC(N5CCCC5)CC4)c([N+](=O)[O-])cc23)cc1Cl [Example 26, 4-({3-Chloro-4-[(1-methyl-1H-imidazole-2-yl)thio]phenyl}amino)-6-nitro-7-(4-pyrrolidin-1-ylpiperidin-1-yl)quinoline-3-carbonitrile] | 220 to 230 °C |
| COc1cc2c(Nc3ccc(Sc4nccn4C)c(Cl)c3)c(C#N)cnc2cc1OCCN1CCC(N2CCCC2)CC1 [Example 36, 4-{3-Chloro-4-[(1-methyl-1H-imidazole-2-yl)sulfanyl]anilino}-6-methoxy-7-{2-[4-(1-pyrrolidinyl)-1-piperidinyl]ethoxy}-3-quinolinecarbonitrile] | 127 to 130 °C |
